The source of these data is ChEMBL document CHEMBL1201862, “PubChem BioAssay data set” (2004).

Data set [1] has as its target G-protein coupled receptor 55 (Homo sapiens, UniProt Q9Y2T6). In words: GPR55 antagonists blocking LPI-driven arrestin recruitment, primary screen, imaging, U2OS, beta-arrestin-GFP, LPI agonist (AID 2013).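 Further: antagonist potency measured as reduced agonist-driven arrestin aggregation.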 In kind it is functional. A general note: Recruitment of arrestin is a read-out of receptor activation apart from second messengers.
In data set [2] the target is T1, Cannabinoid receptor 1 (Homo sapiens, UniProt P21554). In words: SAR analysis of antagonists of the Cannabinoid Receptor 1 using an Image-Based Assay - Set 2. [Related pubchem assays (depositor defined):AID2013, AID2026]. In kind it is functional.
In data set [3] the target is T2, G-protein coupled receptor 35 (Homo sapiens, UniProt Q9HC97). In words: SAR analysis of Agonists of the GPR35 Receptor using an Image-Based Assay - Set 2. [Related pubchem assays (depositor defined):AID2013, AID2026]. The data set is classed as functional.
The target in data set [4] is T3, Cannabinoid receptor 2 (Homo sapiens, UniProt P34972). Kind of data set: SAR analysis of antagonists of the Cannabinoid Receptor 2 using an Image-Based Assay. [Related pubchem assays (depositor defined):AID2013, AID2026]. The data set is classed as functional.
For data set [5], the target named is T1, Cannabinoid receptor 1. In words: SAR analysis of agonists of the Cannabinoid Receptor 1 using an Image-Based Assay - Set 2. [Related pubchem assays (depositor defined):AID2013, AID2026]. In kind it is functional.
Data set [6] deals with T2, G-protein coupled receptor 35. In words: SAR analysis of Antagonists of the GPR35 Receptor using an Image-Based Assay - Set 3. [Related pubchem assays (depositor defined):AID2013, AID2026]. In kind it is functional.
Data set [7] addresses T3, Cannabinoid receptor 2. In words: SAR analysis of agonists of the Cannabinoid Receptor 2 using an Image-Based Assay. [Related pubchem assays (depositor defined):AID2013, AID2026]. The data set is classed as functional.
The target in data set [8] is T4, Replicative DNA helicase DnaB (Mycobacterium tuberculosis, UniProt P9WMR3).
T4 sequence (P9WMR3 whole entry): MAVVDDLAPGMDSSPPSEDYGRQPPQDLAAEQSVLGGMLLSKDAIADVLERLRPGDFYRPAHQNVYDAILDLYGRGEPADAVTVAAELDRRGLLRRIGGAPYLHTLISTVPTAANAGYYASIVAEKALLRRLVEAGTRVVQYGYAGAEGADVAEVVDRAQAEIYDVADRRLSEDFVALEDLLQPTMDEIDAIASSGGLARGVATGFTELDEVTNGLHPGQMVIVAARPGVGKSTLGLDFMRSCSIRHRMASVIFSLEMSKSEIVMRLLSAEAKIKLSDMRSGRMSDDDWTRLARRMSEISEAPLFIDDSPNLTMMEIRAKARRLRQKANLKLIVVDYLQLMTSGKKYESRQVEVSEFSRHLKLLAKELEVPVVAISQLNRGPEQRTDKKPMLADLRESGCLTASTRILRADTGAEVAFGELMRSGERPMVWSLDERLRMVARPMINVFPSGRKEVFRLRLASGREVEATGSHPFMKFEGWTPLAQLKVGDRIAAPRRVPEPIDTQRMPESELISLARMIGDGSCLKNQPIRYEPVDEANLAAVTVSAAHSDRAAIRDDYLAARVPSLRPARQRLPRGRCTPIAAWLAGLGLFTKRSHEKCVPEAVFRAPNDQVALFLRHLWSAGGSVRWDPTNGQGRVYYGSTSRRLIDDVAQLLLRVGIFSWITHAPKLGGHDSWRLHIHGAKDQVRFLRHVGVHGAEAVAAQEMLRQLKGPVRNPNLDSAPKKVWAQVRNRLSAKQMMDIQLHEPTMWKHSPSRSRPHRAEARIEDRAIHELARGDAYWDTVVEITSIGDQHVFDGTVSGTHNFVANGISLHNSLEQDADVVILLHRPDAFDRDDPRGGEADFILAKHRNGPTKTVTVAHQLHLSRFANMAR
In words: DnaB intein splicing inhibitors, dose response, biochemical, cell-free fluorescence (AID 449749). In kind it is functional.

The target in data set [9] is T5, Protein RecA (Mycobacterium tuberculosis, UniProt P9WHJ3).
T5 sequence (P9WHJ3 whole entry): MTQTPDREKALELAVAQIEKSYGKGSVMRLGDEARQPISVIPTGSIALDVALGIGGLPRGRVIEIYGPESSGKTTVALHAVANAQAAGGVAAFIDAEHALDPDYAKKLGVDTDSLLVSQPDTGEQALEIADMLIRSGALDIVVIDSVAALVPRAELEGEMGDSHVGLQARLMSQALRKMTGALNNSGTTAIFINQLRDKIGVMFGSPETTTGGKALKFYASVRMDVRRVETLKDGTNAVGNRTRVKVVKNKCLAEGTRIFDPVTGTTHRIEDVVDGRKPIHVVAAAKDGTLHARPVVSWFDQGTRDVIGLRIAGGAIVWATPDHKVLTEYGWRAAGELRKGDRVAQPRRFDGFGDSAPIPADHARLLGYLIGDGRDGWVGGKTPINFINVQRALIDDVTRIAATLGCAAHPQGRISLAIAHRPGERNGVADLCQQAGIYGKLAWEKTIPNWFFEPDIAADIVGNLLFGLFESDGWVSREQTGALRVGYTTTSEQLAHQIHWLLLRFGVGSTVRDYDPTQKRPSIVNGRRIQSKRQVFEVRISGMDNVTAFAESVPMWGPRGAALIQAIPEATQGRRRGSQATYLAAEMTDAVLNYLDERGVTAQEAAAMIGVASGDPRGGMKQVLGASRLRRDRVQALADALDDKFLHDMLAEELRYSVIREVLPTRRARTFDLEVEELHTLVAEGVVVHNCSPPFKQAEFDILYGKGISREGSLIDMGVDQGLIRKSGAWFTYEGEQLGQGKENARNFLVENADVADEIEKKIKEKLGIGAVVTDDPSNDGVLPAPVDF
In words: Fluorescence Cell-Free Homogeneous Dose Retest to Identify Inhibitors of RecA-Intein Splicing Activity. [Related pubchem assays (depositor defined):AID2097, AID2223, AID489010, AID492950]. The data set is classed as functional.

In data set [10] the target is T6, RNA-binding protein pos-1 (Caenorhabditis elegans, UniProt G5EF15).
T6 sequence (G5EF15 whole entry): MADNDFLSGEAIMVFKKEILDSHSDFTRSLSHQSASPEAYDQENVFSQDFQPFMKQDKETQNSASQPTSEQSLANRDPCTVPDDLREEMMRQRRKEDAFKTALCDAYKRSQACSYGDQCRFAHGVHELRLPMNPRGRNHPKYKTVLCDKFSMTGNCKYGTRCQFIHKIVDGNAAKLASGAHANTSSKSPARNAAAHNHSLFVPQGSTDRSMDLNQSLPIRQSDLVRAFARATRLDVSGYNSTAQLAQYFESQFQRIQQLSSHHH
Kind of data set: inhibitors of POS-1/mex-3 RNA binding, dose response, biochemical, fluorescence polarization (AID 1964).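 Further: purified POS-1 fused to maltose binding protein made in E. coli; potency of compounds blocking POS-1 binding to fluorescent RNA.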 For orientation: Polarisation of emitted light reports the rotation of a fluorescent probe.

The target of data set [11] is T7, Zinc finger protein mex-5 (Caenorhabditis elegans, UniProt Q9XUB2).
T7 sequence (Q9XUB2 whole entry): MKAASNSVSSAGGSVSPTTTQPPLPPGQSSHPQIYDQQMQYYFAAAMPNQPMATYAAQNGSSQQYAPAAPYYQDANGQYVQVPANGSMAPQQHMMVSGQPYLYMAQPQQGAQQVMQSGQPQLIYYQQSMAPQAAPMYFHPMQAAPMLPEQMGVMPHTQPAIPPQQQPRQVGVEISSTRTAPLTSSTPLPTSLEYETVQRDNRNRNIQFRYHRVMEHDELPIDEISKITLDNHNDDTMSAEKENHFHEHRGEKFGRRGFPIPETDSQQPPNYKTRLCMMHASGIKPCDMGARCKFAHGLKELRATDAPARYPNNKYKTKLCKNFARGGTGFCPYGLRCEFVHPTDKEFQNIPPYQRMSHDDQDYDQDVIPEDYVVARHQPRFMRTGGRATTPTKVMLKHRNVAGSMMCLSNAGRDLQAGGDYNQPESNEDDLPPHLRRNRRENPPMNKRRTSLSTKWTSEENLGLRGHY
Kind of data set: MEX-5/TCR-2 RNA interaction inhibitors, dose response, biochemical, C. elegans, fluorescence polarization (AID 1960).

In data set [12] the target is Lysine-specific demethylase 4C (Homo sapiens, UniProt Q9H3R0). In words: GASC-1 (JMJD2C) histone demethylase inhibitors, dose response, biochemical, DELFIA europium, cherry-picked samples (AID 488835). In kind it is functional.
A short description of data set [13]: growth suppression of PTEN-null colon cells, dose response, cell-based, HCT116 PTEN knockout (AID 1047).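 Further: HCT116 colon tumor cells with PTEN knocked out; cells exposed to compound for 60 hours before readout; potency for loss of cell viability measured by luminescence.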 In kind it is functional.
Data set [14] in a line: growth suppression of beta-catenin-knockout colon cells, dose response, cell-based, HCT116, human colon tumor (AID 1045).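 Further: HCT116 colon tumor cells with beta catenin knocked out; cells exposed to compound for 60 hours.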 In kind it is functional.
The target in data set [15] is Cytochrome P450 2C19 (Homo sapiens, UniProt P33261). In words: Cytochrome panel assay with activity outcomes. Panel member name: p450-cyp2c19 Compounds with AC50 equal or less than 10 uM are considered active. As to conditions: read-out: AC50. In kind it is functional.
In data set [16] the target is Cytochrome P450 3A4 (Homo sapiens, UniProt P08684).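 Further: CYP3A4 tested as one member of a cytochrome P450 panel screen.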
For data set [17], the target named is Sphingosine 1-phosphate receptor 1 (Homo sapiens, UniProt P21453). Kind of data set: Fluorescence-based counterscreen assay for S1P4 agonists: Cell-based dose response high throughput screening assay to identify agonists of the Sphingosine 1-Phosphate Receptor 1 (S1P1). [Related pubchem assays (depositor defined):AID1509, AID1523, AID1801, AID463107, AID463118, AID463119, AID463122, AID463123, AID463129, AID463225, AID504400, AID504460]. In kind it is functional. (In general: A counterscreen serves to expose hits that act by an unwanted route or on another target.)

Data set [18] relates to Streptococcus sp. 'group A'. Kind of data set: growth inhibition of control SK(-) GAS strain, dose response, counter-screen for streptokinase expression inhibitor project, luminescence, kanamycin, BacTiterGlo, confirmation (AID 1900). The data set is classed as functional, organism-based.
Data set [19] has as its target T8, Streptokinase A (Streptococcus pyogenes serotype M1, UniProt P10520).
T8 sequence (P10520 whole entry): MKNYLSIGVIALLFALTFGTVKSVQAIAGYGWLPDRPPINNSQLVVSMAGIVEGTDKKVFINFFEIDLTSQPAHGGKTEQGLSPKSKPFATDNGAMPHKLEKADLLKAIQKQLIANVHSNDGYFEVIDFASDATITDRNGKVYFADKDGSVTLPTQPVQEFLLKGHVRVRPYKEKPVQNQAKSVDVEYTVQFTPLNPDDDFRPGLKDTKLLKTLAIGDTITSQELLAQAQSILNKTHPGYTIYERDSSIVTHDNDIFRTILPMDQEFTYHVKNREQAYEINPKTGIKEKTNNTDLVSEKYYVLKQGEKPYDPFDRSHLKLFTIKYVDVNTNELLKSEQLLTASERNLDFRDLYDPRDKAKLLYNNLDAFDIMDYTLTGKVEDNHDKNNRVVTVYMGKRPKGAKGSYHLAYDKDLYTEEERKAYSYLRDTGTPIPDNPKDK
In words: S. pyogenes streptokinase expression inhibitors, potency, dose response, plasminogen activation absorbance, OD405 (AID 1914).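 Further: secreted streptokinase activity via plasminogen activation per viability signal from cell pellet.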 The data set is classed as functional, Streptococcus pyogenes M1 GAS.

The target in data set [20] is Sphingosine 1-phosphate receptor 4 (Homo sapiens, UniProt O95977). In words: Fluorescence dose response cell-based high throughput screening assay for agonists of the Sphingosine 1-Phosphate Receptor 4 (S1P4). [Related pubchem assays: 1509 (Primary screen.), 1523 (Confirmation screen in triplicates.)]. In kind it is functional.
Data set [21] deals with Streptococcus. Kind of data set: Group A Streptococcus viability loss, dose response, counter-screen for streptokinase expression inhibitor project, luminescence, BacTiterGlo (AID 1915).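 Further: potency for reduction of bacterial viability or growth.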 The data set is classed as functional, organism-based.

Activity calls are given as the source filed them.

T3 sequence (P34972 whole entry): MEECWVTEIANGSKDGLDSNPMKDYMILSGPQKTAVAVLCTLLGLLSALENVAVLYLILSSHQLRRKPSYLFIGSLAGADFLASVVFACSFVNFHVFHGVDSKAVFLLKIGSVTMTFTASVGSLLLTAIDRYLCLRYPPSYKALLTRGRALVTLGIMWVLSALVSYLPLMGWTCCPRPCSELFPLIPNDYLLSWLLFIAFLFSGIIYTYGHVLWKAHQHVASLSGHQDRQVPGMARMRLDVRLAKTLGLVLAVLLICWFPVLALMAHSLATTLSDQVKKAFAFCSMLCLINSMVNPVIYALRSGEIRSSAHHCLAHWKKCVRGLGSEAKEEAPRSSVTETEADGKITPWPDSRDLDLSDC
T2 sequence (Q9HC97 whole entry): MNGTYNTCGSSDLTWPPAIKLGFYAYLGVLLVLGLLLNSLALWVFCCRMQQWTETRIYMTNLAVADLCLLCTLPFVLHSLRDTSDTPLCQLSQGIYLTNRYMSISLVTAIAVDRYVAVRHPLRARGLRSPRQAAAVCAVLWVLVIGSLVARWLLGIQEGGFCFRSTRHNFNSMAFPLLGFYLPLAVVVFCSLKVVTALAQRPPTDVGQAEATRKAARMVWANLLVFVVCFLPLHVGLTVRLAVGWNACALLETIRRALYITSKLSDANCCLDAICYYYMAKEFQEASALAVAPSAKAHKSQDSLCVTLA
T1 sequence (P21554 whole entry): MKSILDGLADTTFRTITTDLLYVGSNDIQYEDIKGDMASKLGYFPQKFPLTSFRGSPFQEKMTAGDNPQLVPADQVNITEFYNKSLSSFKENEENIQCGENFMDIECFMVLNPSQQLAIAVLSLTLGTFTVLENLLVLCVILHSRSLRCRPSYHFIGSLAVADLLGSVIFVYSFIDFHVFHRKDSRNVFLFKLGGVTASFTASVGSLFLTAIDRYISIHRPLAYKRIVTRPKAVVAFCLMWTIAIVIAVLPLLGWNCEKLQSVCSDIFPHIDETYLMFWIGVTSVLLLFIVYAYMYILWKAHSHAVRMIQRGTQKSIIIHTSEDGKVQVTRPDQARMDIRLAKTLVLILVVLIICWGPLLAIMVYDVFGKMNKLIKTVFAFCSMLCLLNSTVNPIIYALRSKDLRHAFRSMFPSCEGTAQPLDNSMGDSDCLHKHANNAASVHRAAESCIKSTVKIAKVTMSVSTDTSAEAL
Chain of Sphingosine 1-phosphate receptor 4 (O95977 whole entry): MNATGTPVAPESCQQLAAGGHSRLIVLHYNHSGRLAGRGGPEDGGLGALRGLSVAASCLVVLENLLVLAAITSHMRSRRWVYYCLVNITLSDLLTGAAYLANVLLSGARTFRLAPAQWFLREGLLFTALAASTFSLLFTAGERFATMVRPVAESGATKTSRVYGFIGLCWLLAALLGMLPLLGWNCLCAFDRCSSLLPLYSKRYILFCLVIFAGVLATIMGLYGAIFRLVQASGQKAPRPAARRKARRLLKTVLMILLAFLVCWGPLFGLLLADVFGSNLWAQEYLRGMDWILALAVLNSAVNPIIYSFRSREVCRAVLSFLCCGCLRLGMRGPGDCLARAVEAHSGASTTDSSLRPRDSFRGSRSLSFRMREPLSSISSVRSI
Chain of Cytochrome P450 2C19 (P33261 whole entry): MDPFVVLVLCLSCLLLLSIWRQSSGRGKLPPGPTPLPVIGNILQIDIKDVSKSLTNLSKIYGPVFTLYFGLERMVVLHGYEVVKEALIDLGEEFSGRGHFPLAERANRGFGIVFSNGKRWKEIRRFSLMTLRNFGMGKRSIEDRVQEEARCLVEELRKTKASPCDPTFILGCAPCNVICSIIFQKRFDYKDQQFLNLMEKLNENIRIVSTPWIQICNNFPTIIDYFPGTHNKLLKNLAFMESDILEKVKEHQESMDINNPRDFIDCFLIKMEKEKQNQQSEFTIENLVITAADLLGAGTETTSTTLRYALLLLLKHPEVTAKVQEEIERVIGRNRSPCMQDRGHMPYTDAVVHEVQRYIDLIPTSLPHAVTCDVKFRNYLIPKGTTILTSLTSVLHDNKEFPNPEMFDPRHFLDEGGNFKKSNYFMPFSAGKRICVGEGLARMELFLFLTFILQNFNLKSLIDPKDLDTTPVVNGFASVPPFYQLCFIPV
Chain of Lysine-specific demethylase 4C (Q9H3R0 whole entry): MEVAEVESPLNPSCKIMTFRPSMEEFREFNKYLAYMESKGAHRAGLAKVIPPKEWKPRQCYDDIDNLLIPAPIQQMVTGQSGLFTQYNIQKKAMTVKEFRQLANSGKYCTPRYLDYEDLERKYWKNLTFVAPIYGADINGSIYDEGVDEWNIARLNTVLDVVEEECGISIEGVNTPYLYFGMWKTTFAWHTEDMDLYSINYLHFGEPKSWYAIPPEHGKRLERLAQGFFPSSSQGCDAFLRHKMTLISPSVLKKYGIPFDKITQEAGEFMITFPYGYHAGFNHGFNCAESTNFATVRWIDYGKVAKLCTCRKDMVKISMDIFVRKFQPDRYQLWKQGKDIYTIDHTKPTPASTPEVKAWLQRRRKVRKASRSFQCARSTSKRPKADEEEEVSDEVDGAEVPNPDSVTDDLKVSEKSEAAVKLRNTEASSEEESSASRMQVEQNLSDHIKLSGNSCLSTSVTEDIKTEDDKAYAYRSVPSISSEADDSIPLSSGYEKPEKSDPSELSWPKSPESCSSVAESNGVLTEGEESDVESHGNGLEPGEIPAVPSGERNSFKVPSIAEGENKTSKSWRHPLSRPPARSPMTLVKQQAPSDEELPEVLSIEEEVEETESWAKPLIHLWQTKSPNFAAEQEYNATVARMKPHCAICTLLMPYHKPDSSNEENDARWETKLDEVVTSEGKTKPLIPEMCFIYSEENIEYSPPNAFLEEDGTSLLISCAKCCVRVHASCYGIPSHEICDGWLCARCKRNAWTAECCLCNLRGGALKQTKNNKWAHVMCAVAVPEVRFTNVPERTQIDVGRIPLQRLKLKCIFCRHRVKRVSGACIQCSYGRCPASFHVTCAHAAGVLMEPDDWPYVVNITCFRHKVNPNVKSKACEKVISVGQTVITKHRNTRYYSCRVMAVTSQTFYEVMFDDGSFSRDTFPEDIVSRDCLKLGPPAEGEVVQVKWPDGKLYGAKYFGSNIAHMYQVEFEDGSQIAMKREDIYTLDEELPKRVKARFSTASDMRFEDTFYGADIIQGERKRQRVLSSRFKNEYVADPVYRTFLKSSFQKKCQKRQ
Chain of Cytochrome P450 3A4 (P08684 whole entry): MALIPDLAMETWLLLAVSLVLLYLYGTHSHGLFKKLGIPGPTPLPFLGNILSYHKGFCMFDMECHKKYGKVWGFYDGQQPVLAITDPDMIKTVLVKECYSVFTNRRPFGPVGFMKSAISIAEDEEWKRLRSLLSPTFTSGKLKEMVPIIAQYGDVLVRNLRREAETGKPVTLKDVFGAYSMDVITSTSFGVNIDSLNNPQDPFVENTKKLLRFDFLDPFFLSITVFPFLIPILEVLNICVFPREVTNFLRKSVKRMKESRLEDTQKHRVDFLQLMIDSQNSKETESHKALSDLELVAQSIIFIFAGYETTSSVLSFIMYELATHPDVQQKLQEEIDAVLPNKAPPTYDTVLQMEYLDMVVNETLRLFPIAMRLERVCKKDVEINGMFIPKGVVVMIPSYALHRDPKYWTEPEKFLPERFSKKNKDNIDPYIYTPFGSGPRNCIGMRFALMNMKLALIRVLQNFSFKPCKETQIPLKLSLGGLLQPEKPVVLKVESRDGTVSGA
Chain of G-protein coupled receptor 55 (Q9Y2T6 whole entry): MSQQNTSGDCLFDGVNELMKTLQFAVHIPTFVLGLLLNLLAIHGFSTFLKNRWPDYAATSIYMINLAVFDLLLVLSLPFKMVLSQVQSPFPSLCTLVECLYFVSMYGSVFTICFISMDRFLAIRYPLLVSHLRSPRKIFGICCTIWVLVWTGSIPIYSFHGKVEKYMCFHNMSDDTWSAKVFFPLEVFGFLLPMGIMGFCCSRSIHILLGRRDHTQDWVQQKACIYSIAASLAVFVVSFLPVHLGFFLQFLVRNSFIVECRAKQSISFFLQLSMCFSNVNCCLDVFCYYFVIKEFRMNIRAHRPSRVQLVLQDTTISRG
Chain of Sphingosine 1-phosphate receptor 1 (P21453 whole entry): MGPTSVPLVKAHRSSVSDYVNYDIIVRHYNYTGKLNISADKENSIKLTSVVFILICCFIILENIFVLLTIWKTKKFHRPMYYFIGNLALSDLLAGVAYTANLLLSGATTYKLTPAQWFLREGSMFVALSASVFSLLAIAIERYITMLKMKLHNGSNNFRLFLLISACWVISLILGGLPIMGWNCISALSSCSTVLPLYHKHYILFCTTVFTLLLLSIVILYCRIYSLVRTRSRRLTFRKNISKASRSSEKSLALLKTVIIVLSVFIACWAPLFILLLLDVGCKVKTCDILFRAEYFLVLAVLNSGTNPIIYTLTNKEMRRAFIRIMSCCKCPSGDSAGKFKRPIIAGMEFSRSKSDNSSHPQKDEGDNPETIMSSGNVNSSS

On to `O=C(c1ccco1)N1CCN(c2nc(C3CC3)nc3sc4c(c23)CCCC4)CC1`, for which the IC50 (usually the concentration at which inhibition is half-maximal) was 1.74 µM (active) in data set [1], > 32 µM (inactive) in data set [2], > 32 µM (inactive) in [4] and > 32 µM (inactive) in [6]. For the same molecule, the EC50 (in general, the midpoint of the concentration-response curve) in data set [3] was > 32 µM (inactive); in data set [5], > 32 µM (inactive); in data set [7], > 32 µM (inactive); in data set [9], 29.6 µM (active). For the same molecule, in data set [8], the AC50 (usually the concentration at which the activity in the assay is half-maximal) is 2.35 µM (active).

In the case of `C=CCN1C(=O)NC(=O)/C(=C/c2ccc(OC)c(CSc3ccccn3)c2)C1=O`, the EC50 in [10] and in data set [11] was > 300 µM (not active) each time. Further, the AC50 in data set [12] was 40.1 µM (active).

As to `Cc1sc(NC(=O)c2ccc(OCC(C)C)cc2)c(C(N)=O)c1-c1ccc(Cl)cc1Cl`, the EC50 is 18.5 µM (active) in data set [13] and 48.2 µM (active) in data set [14]. Besides, the AC50 in [15] is 1.78 µM (inconclusive); in data set [16], “inconclusive”.

On to `CC(C)C[C@H](NC(=O)c1[nH]cnc1C(=O)NCc1ccccc1)C(=O)OCc1ccccc1`, for which the EC50 in data set [17] is > 49.8 µM (inactive); in [18], 3.55 µM (active); in data set [19] it was > 150 µM (not active); in [20], 14.4 µM (not active); in data set [21], 20.5 µM (active).
